Results published in the supplement of paper PMC11451515.

System: NOMO1
Assay: cell viability relative to DMSO control; higher = less cytotoxic
Settings: 48 h
How it was run: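 Leukemia cells (NOMO1 or SEM, 500 cells/well; P12-Ichikawa, 1000 cells/well) were seeded in 5 μl in 1536-well plates after at least four passages of adaptation to each medium. They received library compounds in DMSO by pin dosing, 11 threefold points from 47 μM to 0.79 nM. Luminescence with CellTiter-Glo One was read after 48 h at 37°C. Viability is stated per plate relative to DMSO wells, with cell-free wells as background.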

[1] = HPLM + 10% dialyzed FBS, 0.000781 µM
[2] = HPLM + 10% dialyzed FBS, 0.00234 µM
[3] = HPLM + 10% dialyzed FBS, 0.00702 µM
[4] = HPLM + 10% dialyzed FBS, 0.0211 µM
[5] = HPLM + 10% dialyzed FBS, 0.0632 µM
[6] = HPLM + 10% dialyzed FBS, 0.19 µM
[7] = HPLM + 10% dialyzed FBS, 0.569 µM
[8] = HPLM + 10% dialyzed FBS, 1.71 µM
[9] = HPLM + 10% dialyzed FBS, 5.12 µM
[10] = HPLM + 10% dialyzed FBS, 15.4 µM
[11] = HPLM + 10% dialyzed FBS, 46.1 µM
[12] = RPMI 5 mM glucose + 10% FBS, 0.000781 µM
[13] = RPMI 5 mM glucose + 10% FBS, 0.00234 µM
[14] = RPMI 5 mM glucose + 10% FBS, 0.00702 µM
[15] = RPMI 5 mM glucose + 10% FBS, 0.0211 µM
[16] = RPMI 5 mM glucose + 10% FBS, 0.0632 µM
[17] = RPMI 5 mM glucose + 10% FBS, 0.19 µM
[18] = RPMI 5 mM glucose + 10% FBS, 0.569 µM
[19] = RPMI 5 mM glucose + 10% FBS, 1.71 µM
[20] = RPMI 5 mM glucose + 10% FBS, 5.12 µM
[21] = RPMI 5 mM glucose + 10% FBS, 15.4 µM
[22] = RPMI 5 mM glucose + 10% FBS, 46.1 µM
[23] = RPMI 5 mM glucose + 10% dialyzed FBS, 0.000781 µM
[24] = RPMI 5 mM glucose + 10% dialyzed FBS, 0.00234 µM
[25] = RPMI 5 mM glucose + 10% dialyzed FBS, 0.00702 µM
[26] = RPMI 5 mM glucose + 10% dialyzed FBS, 0.0211 µM
[27] = RPMI 5 mM glucose + 10% dialyzed FBS, 0.0632 µM
[28] = RPMI 5 mM glucose + 10% dialyzed FBS, 0.19 µM
[29] = RPMI 5 mM glucose + 10% dialyzed FBS, 0.569 µM
[30] = RPMI 5 mM glucose + 10% dialyzed FBS, 1.71 µM
[31] = RPMI 5 mM glucose + 10% dialyzed FBS, 5.12 µM
[32] = RPMI 5 mM glucose + 10% dialyzed FBS, 15.4 µM
[33] = RPMI 5 mM glucose + 10% dialyzed FBS, 46.1 µM

Structure (SMILES)	cell viability [1] [%]	cell viability [2] [%]	cell viability [3] [%]	cell viability [4] [%]	cell viability [5] [%]	cell viability [6] [%]	cell viability [7] [%]	cell viability [8] [%]	cell viability [9] [%]	cell viability [10] [%]	cell viability [11] [%]	cell viability [12] [%]	cell viability [13] [%]	cell viability [14] [%]	cell viability [15] [%]	cell viability [16] [%]	cell viability [17] [%]	cell viability [18] [%]	cell viability [19] [%]	cell viability [20] [%]	cell viability [21] [%]	cell viability [22] [%]	cell viability [23] [%]	cell viability [24] [%]	cell viability [25] [%]	cell viability [26] [%]	cell viability [27] [%]	cell viability [28] [%]	cell viability [29] [%]	cell viability [30] [%]	cell viability [31] [%]	cell viability [32] [%]	cell viability [33] [%]
c1cc(-c2sc(-c3ccncc3)c(-c3ccncc3)c2-c2ccncc2)ccn1	88.1	111	117	111	108	129	140	114	124	116	78.3	118	128	106	105	113	118	127	103	98.2	109	93.4	94.1	107	106	104	117	106	114	105	101	90.9	92.3
Cn1cc(-c2ccc3ncc(Cc4ccc5ncccc5c4)n3n2)cn1	102	96.5	99.8	110	100	102	111	120	110	105	91.7	99.2	108	102	96.4	115	110	118	111	102	97.6	102	84.9	110	97.4	112	105	105	114	110	99	94.4	99.7
O=C1c2cccc(O)c2C(=O)c2c(O)cc(CO)cc21	89.5	109	87.5	89.8	98.5	81.8	82.5	86.5	81.9	75.8	76.8	96.8	92.5	92.1	91.9	87.1	88.3	90.6	92.8	81.9	85.5	78.9	97.8	106	104	95.4	100	93.1	102	79.7	85.2	94.5	94.3
COc1ccc(-c2nc3cc(C4=NNC(=O)CC4C)ccc3[nH]2)cc1 (centres undefined)	104	117	107	103	110	119	112	123	119	119	126	91.5	102	100	108	117	118	109	114	102	117	118	116	110	111	105	110	118	104	111	116	110	120
CCC(CC)[C@H](NC(C)=O)[C@@H]1[C@H](O)[C@@H](C(=O)O)C[C@H]1NC(=N)N	67.7	72	78	85	80.9	96.4	90.3	90.8	87.7	82.8	94.9	81.8	85	88.7	85.8	89	84.3	90	87.1	84.1	79.5	81.1	80.4	79.7	82.6	80.4	93	83	90.2	81.7	78.2	78.3	83.1
C[Se]CCC(N)C(=O)O (centres undefined)	90.1	90.2	85.7	95.7	99.3	93	93.1	59.1	83.5	69	73.7	79.9	83.5	97.2	84.4	88.5	83.3	89.3	86.7	79.4	84	79	77.2	87.3	85.4	81.9	91.1	89.1	73.1	77	95.7	74.2	76.2
CC1(C)CC(=O)c2c(C(F)(F)F)nn(-c3ccc(C(N)=O)c(NC4CCC(OC(=O)CN)CC4)c3)c2C1 (centres undefined)	94.8	92.8	104	99	102	84.5	27.3	17.8	13.5	17.5	15.7	92.5	110	92.4	92.9	84.2	88.9	20.6	11.2	9.75	9.88	11.1	94.4	103	109	93.2	89.2	76	21.3	15.8	13.4	14.1	15.9
Cc1ccc(F)c(NC(=O)Nc2ccc(-c3cccc4[nH]nc(N)c34)cc2)c1	91.4	111	118	125	115	111	110	110	117	93.8	86.6	99.6	125	121	108	123	118	113	115	118	114	105	106	112	108	123	116	105	120	117	104	111	87.8
